This note sets out measurements from patent US9284283B2, “Macrocyclic compounds for modulating IL-17” (ENSEMBLE THERAPEUTICS CORPORATION, priority 2012, dated 2016).

The structures appear in SMILES notation. A value given as a limit tells only on which side of the number the result lay.

A word on the IC50: it is the concentration that gives 50% inhibition. A lower IC50 goes with greater potency. What is called Kd is the equilibrium constant for the complex coming apart. High values mean a looser complex, low ones a tighter complex.

Experiment [1] relates to IL-17-induced GROα secretion from HT-29 cells. Nature of the experiment: HT-29 cellular assay (IL-17-induced GROα secretion). The experiment is classed as cell-based. The settings on record: Homo sapiens. As to the method:
To test the ability of a compound of the invention to neutralize or antagonize IL-17 bioactivity, the following cell-based assay was used. IL-17 can stimulate epithelial cells and other cells to secrete GROα. The ability of a compound of the invention to neutralize IL-17-induced GROα secretion from the human colorectal adenocarcinoma epithelial cell line HT-29 is tested in this assay.
HT-29 cells (human colorectal adenocarcinoma epithelial cells, ATCC #HTB-38), were maintained in culture/assay medium in tissue culture-treated flasks using standard techniques. HT-29 cells were grown in tissue culture flasks until they were 50-80% confluent on the day before the assay. The day before the assay, the cells were detached from the culture flasks with trypsin+EDTA. The trypsin was inactivated with complete assay medium. HT-29 cells were then centrifuged at 500×g for 5 minutes at room temperature. The cell pellet was then re-suspended in Defined Keratinocyte SFM (Invitrogen #10766019)+10% FCS and 50,000 HT-29 cells (in 100 μl) were added to each treatment well of the 96-well plates. The 96-well plates were placed in a tissue culture incubator (37° C., 5% CO2) overnight. The next day, the media was removed from the cells and the cells were washed twice with Defined Keratinocyte SFM. In a separate 96-well plate, compounds to be tested were serially diluted in Defined Keratinocyte SFM and run in triplicate in 100 μL total volume. To these compound samples were then added 100 μL of human IL-17 at a concentration of 20 ng/mL in Defined Keratinocyte SFM for serum-free assays. 150 μL of the compound/IL-17 mixture was then added to the cells from which the media has previously been removed. The cells were grown for 48 hours in Defined Keratinocyte SFM in a tissue culture incubator (37° C., 5% CO2).
At the end of the incubation, the plates are centrifuged (500×g for 5 minutes at room temperature), and the cell culture media is transferred to polypropylene 96-well plates. The supernatant was used neat in the ELISA. GROα levels are measured with a GROα sandwich ELISA (R+D Systems DuoSet #DY275E), as per the manufacturer's instructions. The ELISA plates were previously coated with mAb 275 (R+D Systems) at 4 μg/mL. GROα is detected using biotinylated goat anti-human GROα (R+D Systems BAF275) at 200 ng/mL using TMB as a substrate. At the end of the ELISA reactions, plates are read at 450 nm on a microplate reader and compared to a standard calibration curve.

In the next experiment the target is T1, IL17A (Homo sapiens, UniProt Q16552).
T1 sequence (Q16552 24-155): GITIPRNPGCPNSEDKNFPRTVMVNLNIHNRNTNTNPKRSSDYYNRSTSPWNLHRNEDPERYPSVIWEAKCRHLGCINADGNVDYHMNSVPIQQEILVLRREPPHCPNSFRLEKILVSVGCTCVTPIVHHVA
Briefly: Surface Plasmon Resonance (SPR) analysis of compound interactions with IL17A. The settings on record: SPR binding to IL17A. The method, boiled down: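 His-tagged IL17A captured on a Ni-NTA chip; five 2- or 3-fold compound dilutions from 50 μM injected for 180 s, 120 s dissociation, in HEPES-saline buffer with 0.5% DMSO. Baseline-subtracted sensorgrams fitted 1:1 for ka, kd and KD; Kd also derived from binding extent per concentration.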
(In general: SPR reads the build-up and loss of mass on a sensor chip optically.)

On to `COC(=O)[C@@H]1CCCCNC(=O)CCCNC(=O)[C@@H](Cc2ccc(NC(=O)[C@H](Cc3ccccc3F)NC(=O)Cc3ccccc3)cc2)NC(=O)CC2(CCCC2)CC(=O)N1` [Compound 106], for which the half-inhibitory concentration (IC50) in experiment [1] is > 10 µM. Also, at IL17A, the Kd lay within 0.1 to 1 µM.

Turning to `COC(=O)[C@@H]1CCCCNC(=O)CNC(=O)[C@@H](Cc2ccc(NC(=O)[C@H](Cc3ccccc3Cl)NC(=O)Cc3ccccc3)cc2)NC(=O)CC2(CCCC2)CC(=O)N1` [Compound 143], the IC50 in experiment [1] was < 1 µM. For the same compound, the Kd at IL17A is < 0.1 µM.

The compound `COC(=O)[C@@H]1CCCCNC(=O)CNC(=O)[C@@H](Cc2ccc(NC(=O)[C@H](Cc3ccccc3Cl)NC(=O)c3ccccc3)cc2)NC(=O)CC2(CCCC2)CC(=O)N1` [Compound 144] displayed an IC50 in experiment [1] of 1 to 10 µM. Further, the Kd at IL17A is < 0.1 µM.

Consider `O=C1CNC(=O)[C@@H](Cc2ccc(NC(=O)[C@H](Cc3ccccc3Cl)NC(=O)Cc3ccccc3)cc2)NC(=O)CC2(CCCC2)CC(=O)NCCCCCN1` [Compound 159], for which the half-maximal inhibitory concentration (IC50) in experiment [1] is < 1 µM. At IL17A, the dissociation constant (Kd) is < 0.1 µM.

In the case of `O=C1CNC(=O)[C@@H](Cc2ccc(NC(=O)[C@H](Cc3ccc(Cl)cc3Cl)NC(=O)Cc3ccccc3)cc2)NC(=O)CC2(CCCC2)CC(=O)NCCCCCN1` [Compound 185], the IC50 in experiment [1] was in the range of 1 to 10 µM. In addition, on IL17A, the dissociation constant (Kd) was < 0.1 µM.

With `O=C1CNC(=O)[C@@H](Cc2ccc(NC(=O)[C@@H](NC(=O)Cc3ccccc3)C3CCCCC3)cc2)NC(=O)CC2(CCCC2)CC(=O)NCCCCCN1` [Compound 186], the Kd at IL17A is < 0.1 µM.

As to `O=C1CNC(=O)[C@@H](Cc2ccc(NC(=O)[C@H](Cc3ccc(Cl)cc3Cl)NC(=O)Cc3ccc(O)cc3)cc2)NC(=O)CC2(CCCC2)CC(=O)NCCCCCN1` [Compound 191], in experiment [1], the 50% inhibitory concentration (IC50) was < 1 µM. In addition, the dissociation constant Kd at IL17A was < 0.1 µM.

Consider `O=C1CNC(=O)[C@@H](Cc2ccc(NC(=O)[C@H](Cc3ccccc3Cl)NC(=O)c3cccnc3)cc2)NC(=O)CC2(CCCC2)CC(=O)NCCCCCN1` [Compound 194], for which the Kd on IL17A was < 0.1 µM.

For the compound `O=C1CNC(=O)[C@@H](Cc2ccc(NC(=O)[C@H](Cc3ccccc3Cl)NC(=O)Cc3ccccn3)cc2)NC(=O)CC2(CCCC2)CC(=O)NCCCCCN1` [Compound 226], the Kd at IL17A is < 0.1 µM.
